≈ marks a conversion by molar mass, not a printed value. Where a SMILES comes first, the peptide text is derived from it. Bridges are numbered along the chain shown (N, C = ends).
How the values were obtained:
Format in all cases: cell-based
[1] = system: Enterococcus faecalis ATCC 29212; experiment: microbe, parasite or virus in culture
Experimental: (§1) Ranatuerin-2P-OG1 synthesis was performed by Royobiotech Co., Ltd. (Shanghai, China) using solid-phase peptide synthesis. The crude peptide was purified by RP-HPLC and its purity was confirmed to exceed 90% via ESI-MS analysis. Antimicrobial assays with various microbial strains were conducted, including gram-positive Staphylococcus aureus ATCC 29213 and its methicillin-resistant variant (MRSA) CIB 8546, Enterococcus faecalis ATCC 29212, gram-negative Pseudomonas aeruginosa ATCC 27853 and Escherichia coli ATCC 25922, and fungal Candida albicans CCMCC(F) 98001. Bacterial cultures were maintained in cation-adjusted Mueller-Hinton broth (MHB) at 35°C for 16-20 h, whereas fungal cultures were grown in Sabouraud dextrose broth (SDB) at 28°C for 48 h.

[2] = system: Staphylococcus aureus ATCC 29213; experiment: microbe, parasite or virus in culture
Experimental: as §1

[3] = system: Escherichia coli ATCC 25922; experiment: microbe, parasite or virus in culture
Experimental: as §1

[4] = system: methicillin-resistant Staphylococcus aureus (MRSA) CIB 8546; experiment: microbe, parasite or virus in culture
Experimental: as §1

[5] = system: Pseudomonas aeruginosa ATCC 27853; experiment: Antimicrobial assay, MIC by broth microdilution; conditions: ATCC27853, highest test concentration 128 μg/mL, read-out: minimum inhibitory concentration (MIC), Pseudomonas aeruginosa
Experimental: as §1

[6] = system: Candida albicans CCMCC(F) 98001
Experimental: as §1

## CC1(C)S[C@@H]2[C@H](NC(=O)[C@H](N)c3ccccc3)C(=O)N2[C@H]1C(=O)O [Ampicillin, reference compound]
[1]; ATCC29212, broth microdilution, Enterococcus faecalis ATCC 29212, read-out: minimum inhibitory concentration (MIC), Enterococcus faecalis
  MIC: 2 µg/mL (≈ 5.72 µM)
[2]; ATCC29213, broth microdilution, Staphylococcus aureus ATCC 29213, read-out: minimum inhibitory concentration (MIC), Staphylococcus aureus
  MIC: 1 µg/mL (≈ 2.86 µM)
[3]; ATCC25922, broth microdilution, Escherichia coli ATCC 25922, read-out: minimum inhibitory concentration (MIC), Escherichia coli
  MIC: 8 µg/mL (≈ 22.9 µM)
[4]; Staphylococcus aureus, broth microdilution, MRSA CIB 8546, read-out: minimum inhibitory concentration (MIC), MRSA
  MIC: 128 µg/mL (≈ 366 µM)
[5]
  MIC: > 128 µg/mL

## CC[C@H](C)[C@H](NC(=O)[C@H](CCCCN)NC(=O)[C@H](CC(=O)O)NC(=O)[C@H](CCCCN)NC(=O)[C@@H](NC(=O)[C@@H](NC(=O)CNC(=O)[C@H](C)NC(=O)[C@@H](NC(=O)[C@H](CC(N)=O)NC(=O)[C@@H](NC(=O)[C@H](CC(C)C)NC(=O)[C@@H](NC(=O)[C@H](CC(N)=O)NC(=O)[C@H](CC(C)C)NC(=O)[C@@H](NC(=O)[C@@H](NC(=O)[C@H](CC(N)=O)NC(=O)[C@H](CCSC)NC(=O)[C@H](CC(C)C)NC(=O)CN)[C@@H](C)O)C(C)C)C(C)C)[C@@H](C)O)C(C)C)[C@@H](C)O)C(C)C)C(=O)N[C@@H](CCCCN)C(=O)N[C@H]1CSSC[C@@H](C(=O)O)NC(=O)CNC(=O)CNC(=O)[C@H]([C@@H](C)O)NC(=O)[C@H](Cc2ccccc2)NC(=O)[C@H](CCCCN)NC1=O [ranatuerin-2P-OG1] (H-GLMNTVLNVLTNVAGTVKDKIKCKFTGGC-OH; disulfide 23-29)
[1]; ATCC 29212
  minimum inhibitory concentration (MIC), Enterococcus faecalis: 256 µg/mL (≈ 84.7 µM)
[2]; ATCC 29213
  minimum inhibitory concentration (MIC), Staphylococcus aureus: 64 µg/mL (≈ 21.2 µM)
[3]; ATCC 25922
  minimum inhibitory concentration (MIC), Escherichia coli: 128 µg/mL (≈ 42.3 µM)
[4]; methicillin-resistant CIB 8546
  minimum inhibitory concentration (MIC), MRSA: 64 µg/mL (≈ 21.2 µM)
[6]
  minimum inhibitory concentration (MIC), Candida albicans: 512 µg/mL (≈ 169 µM)

— article PMC12664280, “Integrative transcriptomics and peptidomics approach reveals unexpectedly diverse endogenous secretory peptides in Odorrana grahami frog skin” (BMC Biology, 2025)
